Values quoted from earlier work, collected in paper PMC7426938, “Induction of mitochondria-mediated apoptosis and suppression of tumor growth in zebrafish xenograft model by cyclic dipeptides identified from Exiguobacterium acetylicum” (Scientific Reports, 2020).
Values after ≈ are worked out from the molar mass of the structure shown.

Legend:
HeLa cells = tested on: HeLa cells; design: method as in PMID 15274345; details: read-out: dose giving 50% growth inhibition; cited from earlier work
MCF-7 cells = tested on: MCF-7 cells; design: method as in PMID 15274345; details: read-out: dose giving 50% growth inhibition; cited from earlier work
HT-29 cells [1] = tested on: HT-29 cells; design: method as in PMID 15274345; details: read-out: dose giving 50% growth inhibition; cited from earlier work
HT-29 cells [2] = tested on: HT-29 cells; design: method as in PMID 29211005, PMID 10052845; details: cited from earlier work
HL-60 cells = tested on: HL-60 cells; design: method as in PMID 29211005, PMID 10052845; details: cited from earlier work

Compound | IC50 (HeLa cells) | IC50 (MCF-7 cells) | IC50 (HT-29 cells [1]) | IC50, anti-proliferative effect (HT-29 cells [2]) | IC50, anti-proliferative effect (HL-60 cells)
O=C1NC(Cc2ccccc2)C(=O)N2CCCC12 (centres unmarked) [cyclo (Phe-Pro)] | < 7 mM | < 7 mM | < 7 mM | – | –
O=C1NC(Cc2ccc(O)cc2)C(=O)N2CCCC12 (centres unmarked) [cyclo (Tyr-Pro)] | < 7 mM | < 7 mM | < 7 mM | – | –
CC(C)C[C@@H]1NC(=O)[C@H](NC(=O)c2cccc(O)c2O)CCCNC1=O [petrocidin-A] | – | – | – | 5.3 µg/mL (≈ 14.6 µM) | 3.9 µg/mL (≈ 10.7 µM)
